Data published in US20230085307A1, “PYRIDAZINONE COMPOUND AND HERBICIDE” (NISSAN CHEMICAL CORPORATION, priority 2019, published 2023).

Key:
[1] = tested on: barnyard grass; test: Test Example 3: herbicidal effect by foliage application, Wagner pot (Table 18, symbol H); assay type: in vivo, barnyard grass (Echinochloa crus-galli); settings: for herbicidal effect on barnyard grass (H): 320 g/ha
Summary of the method: (§1)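 Plants were sown in alluvial soil held under 0.1–0.5 cm standing water and grown 14 days in a greenhouse at 25–30 °C. An emulsifiable formulation, water-diluted to the set dose, was then sprayed onto the foliage, and effects were scored three weeks later using previously defined criteria.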

[2] = tested on: windgrass; test: Test Example 5: herbicidal effect by foliage application, plastic box (Table 20, symbol L); assay type: in vivo, windgrass (Apera spica-venti); settings: 320 g/ha; for herbicidal effect on L: windgrass (evaluation grade 0-5): foliage application after 14-day growth, evaluated three weeks after application
Summary of the method: (§2)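 Foliar spray test: emulsion formulation diluted in water to a set application rate, sprayed onto 14-day-old plants raised in diluvial soil at 25° C to 30° C under glass. Both herbicidal effect and crop effect rated visually three weeks later.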

[3] = tested on: green foxtail; test: Test Example 5: herbicidal effect by foliage application, plastic box (Table 20, symbol G); assay type: in vivo, green foxtail (Setaria viridis); settings: 320 g/ha; for herbicidal effect on G: green foxtail (evaluation grade 0-5): foliage application after 14-day growth, evaluated three weeks after application
Summary of the method: as §2

[4] = tested on: Italian ryegrass; test: Test Example 5: herbicidal effect by foliage application, plastic box (Table 20, symbol K); assay type: in vivo, Italian ryegrass (Lolium multiflorum); settings: 320 g/ha; for herbicidal effect on K: Italian ryegrass (evaluation grade 0-5): foliage application after 14-day growth, evaluated three weeks after application
Summary of the method: as §2

[5] = tested on: Chinese sprangletop; test: Test Example 3: herbicidal effect by foliage application, Wagner pot (Table 18, symbol D); assay type: in vivo, chinese sprangletop (Leptochloa chinensis); settings: for herbicidal effect on Chinese sprangletop (D): 320 g/ha
Summary of the method: as §1

[6] = tested on: velvetleaf; test: Test Example 5: herbicidal effect by foliage application, plastic box (Table 20, symbol M); assay type: in vivo, velvetleaf (Abutilon theophrasti); settings: 320 g/ha; for herbicidal effect on M: velvetleaf (evaluation grade 0-5): foliage application after 14-day growth, evaluated three weeks after application
Summary of the method: as §2

[7] = tested on: chickweed; test: Test Example 5: herbicidal effect by foliage application, plastic box (Table 20, symbol P); assay type: in vivo, common chickweed (Stellaria media); settings: 320 g/ha; for herbicidal effect on P: chickweed (evaluation grade 0-5): foliage application after 14-day growth, evaluated three weeks after application
Summary of the method: as §2

[8] = tested on: southern crabgrass; test: Test Example 5: herbicidal effect by foliage application, plastic box (Table 20, symbol F); assay type: in vivo, southern crabgrass (Digitaria ciliaris); settings: 320 g/ha; for herbicidal effect on F: southern crabgrass (evaluation grade 0-5): foliage application after 14-day growth, evaluated three weeks after application
Summary of the method: as §2

[9] = tested on: persian speedwell; test: Test Example 5: herbicidal effect by foliage application, plastic box (Table 20, symbol R); assay type: in vivo, Persian speedwell (Veronica persica); settings: 320 g/ha; for herbicidal effect on R: persian speedwell (evaluation grade 0-5): foliage application after 14-day growth, evaluated three weeks after application
Summary of the method: as §2

[10] = tested on: wild oat; test: Test Example 5: herbicidal effect by foliage application, plastic box (Table 20, symbol I); assay type: in vivo, wild oat (Avena fatua); settings: 320 g/ha; for herbicidal effect on I: wild oat (evaluation grade 0-5): foliage application after 14-day growth, evaluated three weeks after application
Summary of the method: as §2

[11] = tested on: redroot pigweed; test: Test Example 5: herbicidal effect by foliage application, plastic box (Table 20, symbol N); assay type: in vivo, redroot pigweed (Amaranthus retroflexus); settings: 320 g/ha; for herbicidal effect on N: redroot pigweed (evaluation grade 0-5): foliage application after 14-day growth, evaluated three weeks after application
Summary of the method: as §2

[12] = tested on: rice flat sedge; test: Test Example 3: herbicidal effect by foliage application, Wagner pot (Table 18, symbol E); assay type: in vivo, rice flat sedge (Cyperus iria); settings: for herbicidal effect on rice flat sedge (E): 320 g/ha
Summary of the method: as §1

[13] = tested on: barnyard grass; test: Test Example 5: herbicidal effect by foliage application, plastic box (Table 20, symbol H); assay type: in vivo, barnyard grass (Echinochloa crus-galli); settings: 320 g/ha; for herbicidal effect on H: barnyard grass (evaluation grade 0-5): foliage application after 14-day growth, evaluated three weeks after application
Summary of the method: as §2

[14] = tested on: blackgrass; test: Test Example 5: herbicidal effect by foliage application, plastic box (Table 20, symbol J); assay type: in vivo, blackgrass (Alopecurus myosuroides); settings: 320 g/ha; for herbicidal effect on J: blackgrass (evaluation grade 0-5): foliage application after 14-day growth, evaluated three weeks after application
Summary of the method: as §2

[15] = tested on: lambsquarters; test: Test Example 5: herbicidal effect by foliage application, plastic box (Table 20, symbol O); assay type: in vivo, lambsquarters (Chenopodium album); settings: 320 g/ha; for herbicidal effect on O: lambsquarters (evaluation grade 0-5): foliage application after 14-day growth, evaluated three weeks after application
Summary of the method: as §2

[16] = amount of applied herbicide 320 g/ha
[17] = foliage application, three weeks after application

SMILES | herbicidal effect on barnyard grass (H) [1] | herbicidal effect on L: windgrass (evaluation grade 0-5) [2] | herbicidal effect on G: green foxtail (evaluation grade 0-5) [3] | herbicidal effect on K: Italian ryegrass (evaluation grade 0-5) [4] | herbicidal effect on Chinese sprangletop (D) [5] | herbicidal effect on M: velvetleaf (evaluation grade 0-5) [6] | herbicidal effect on P: chickweed (evaluation grade 0-5) [7] | herbicidal effect on F: southern crabgrass (evaluation grade 0-5) [8] | herbicidal effect on R: persian speedwell (evaluation grade 0-5) [9] | herbicidal effect on I: wild oat (evaluation grade 0-5) [10] | herbicidal effect on N: redroot pigweed (evaluation grade 0-5) [11] | herbicidal effect on rice flat sedge (E) [12] | herbicidal effect on H: barnyard grass (evaluation grade 0-5) [13] | herbicidal effect on J: blackgrass (evaluation grade 0-5) [14] | herbicidal effect on O: lambsquarters (evaluation grade 0-5) [15] | other results
Cc1nn(C)c(=O)c(-c2c(-c3ccc(Cl)cc3)sc3cc(F)ccc23)c1O [3-015] |  |  |  |  |  |  |  |  |  |  |  |  |  |  |  | herbicidal effect on H: barnyard grass [1, 16]: 3 (Herbicidal rate of 40% or more and less than 70%); L: windgrass, herbicidal effect grade [2, 17]: 5 (Herbicidal rate of 90% or more (almost completely withered)); G: green foxtail, herbicidal effect grade [3, 17]: 0 (Herbicidal rate of 5% or less (almost no effect)); K: Italian ryegrass, herbicidal effect grade [4, 17]: 0 (Herbicidal rate of 5% or less (almost no effect)); herbicidal effect on D: Chinese sprangletop [5, 16]: 3 (Herbicidal rate of 40% or more and less than 70%); M: velvetleaf, herbicidal effect grade [6, 17]: 0 (Herbicidal rate of 5% or less (almost no effect)); P: chickweed, herbicidal effect grade [7, 17]: 4 (Herbicidal rate of 70% or more and less than 90%); F: southern crabgrass, herbicidal effect grade [8, 17]: 0 (Herbicidal rate of 5% or less (almost no effect)); R: persian speedwell, herbicidal effect grade [9, 17]: 2 (Herbicidal rate of 20% or more and less than 40%); I: wild oat, herbicidal effect grade [10, 17]: 0 (Herbicidal rate of 5% or less (almost no effect)); N: redroot pigweed, herbicidal effect grade [11, 17]: 2 (Herbicidal rate of 20% or more and less than 40%); herbicidal effect on E: rice flat sedge [12, 16]: 3 (Herbicidal rate of 40% or more and less than 70%); H: barnyard grass, herbicidal effect grade [13, 17]: 0 (Herbicidal rate of 5% or less (almost no effect)); J: blackgrass, herbicidal effect grade [14, 17]: 1 (Herbicidal rate of 5% or more and less than 20%); O: lambsquarters, herbicidal effect grade [15, 17]: 0 (Herbicidal rate of 5% or less (almost no effect))
Cc1nn(C)c(=O)c(-c2c(-c3ccc(OC(F)F)cc3)sc3cc(Cl)ccc23)c1O [3-147] | 4 (Herbicidal rate of 70% or more and less than 90%) | 5 (Herbicidal rate of 90% or more (almost completely withered)) | 5 (Herbicidal rate of 90% or more (almost completely withered)) | 3 (Herbicidal rate of 40% or more and less than 70%) | 2 (Herbicidal rate of 20% or more and less than 40%) | 4 (Herbicidal rate of 70% or more and less than 90%) | 5 (Herbicidal rate of 90% or more (almost completely withered)) | 3 (Herbicidal rate of 40% or more and less than 70%) | 5 (Herbicidal rate of 90% or more (almost completely withered)) | 3 (Herbicidal rate of 40% or more and less than 70%) | 4 (Herbicidal rate of 70% or more and less than 90%) | 3 (Herbicidal rate of 40% or more and less than 70%) | 3 (Herbicidal rate of 40% or more and less than 70%) | 5 (Herbicidal rate of 90% or more (almost completely withered)) | 5 (Herbicidal rate of 90% or more (almost completely withered)) | 
Cc1nn(C)c(=O)c(-c2c(-c3ccc(C(F)(F)F)cc3F)sc3c(Cl)cccc23)c1O [4-037] | 3 (Herbicidal rate of 40% or more and less than 70%) | 5 (Herbicidal rate of 90% or more (almost completely withered)) | 2 (Herbicidal rate of 20% or more and less than 40%) | 0 (Herbicidal rate of 5% or less (almost no effect)) | 1 (Herbicidal rate of 5% or more and less than 20%) | 5 (Herbicidal rate of 90% or more (almost completely withered)) | 4 (Herbicidal rate of 70% or more and less than 90%) | 0 (Herbicidal rate of 5% or less (almost no effect)) | 0 (Herbicidal rate of 5% or less (almost no effect)) | 0 (Herbicidal rate of 5% or less (almost no effect)) | 5 (Herbicidal rate of 90% or more (almost completely withered)) | 0 (Herbicidal rate of 5% or less (almost no effect)) | 0 (Herbicidal rate of 5% or less (almost no effect)) | 0 (Herbicidal rate of 5% or less (almost no effect)) | 5 (Herbicidal rate of 90% or more (almost completely withered)) | 
Cc1ccccc1-c1sc2c(Cl)cccc2c1-c1c(O)c(C)nn(C)c1=O [4-060] | 3 (Herbicidal rate of 40% or more and less than 70%) | 4 (Herbicidal rate of 70% or more and less than 90%) | 0 (Herbicidal rate of 5% or less (almost no effect)) | 0 (Herbicidal rate of 5% or less (almost no effect)) | 1 (Herbicidal rate of 5% or more and less than 20%) | 0 (Herbicidal rate of 5% or less (almost no effect)) | 4 (Herbicidal rate of 70% or more and less than 90%) | 0 (Herbicidal rate of 5% or less (almost no effect)) | 0 (Herbicidal rate of 5% or less (almost no effect)) | 0 (Herbicidal rate of 5% or less (almost no effect)) | 2 (Herbicidal rate of 20% or more and less than 40%) | 3 (Herbicidal rate of 40% or more and less than 70%) | 0 (Herbicidal rate of 5% or less (almost no effect)) | 0 (Herbicidal rate of 5% or less (almost no effect)) | 0 (Herbicidal rate of 5% or less (almost no effect)) | 
